Broadly, the GI50 is the concentration that inhibits growth by half.

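Protocol summary: plate cells (96-well), add compound at 5 concentrations, incubate 48 h, interpolate endpoints linearly. The concentration for 50% growth inhibition is given as GI50.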 Active and inactive are the calls of the source. Cut-off read from the data, not from the text of the source: active = GI50 up to about 1.1 µM and inactive = higher.

What all share (test): DTP human tumour cell line panel, 48 h
Assay [1] relates to OVCAR-8.
The subject of assay [2] is 786-0.
Assay [3] relates to SNB-19.
The test system of assay [4] is NCI-H226.
Assay [5] relates to SN12C.
Assay [6] concerns UACC-62.
The subject of assay [7] is OVCAR-5.
Assay [8] concerns HOP-92.
Assay [9] has as its system RXF 393.
Assay [10] has as its system U-251.
For assay [11], the system named is HL-60.
Assay [12] relates to SF-539.
In assay [13] the test system is HCC 2998.
Assay [14] has as its system HCT-116.
Assay [15] deals with TK-10.
The test system of assay [16] is MOLT-4.
The test system of assay [17] is MCF7.
The test system of assay [18] is Hs-578T.
For assay [19], the system named is MDA-MB-435.

`O=C(N/C(=C\c1ccc2c(c1)OCO2)c1nc2ccccc2[nH]1)c1ccccc1`: the GI50 in assay [1] was 37 µM (inactive); in assay [2], 59.2 µM (inactive); in [3] it was 36 µM (inactive); in assay [4], 21 µM (inactive); in assay [5] it was 30.2 µM (inactive); in assay [6] it was 20.9 µM (inactive). The GI50 in assay [7] is 37.6 µM (inactive); in assay [8] it was 18.8 µM (inactive); in [9], 24.7 µM (inactive); in assay [10], 32 µM (inactive); in [11], 14.8 µM (inactive); in assay [12], 24.9 µM (inactive). The GI50 in [13] was 27.7 µM (inactive); in assay [14], 31.3 µM (inactive); in assay [15] it was 29.2 µM (inactive); in assay [16] it was 20.2 µM (inactive).

In the case of `CCCCCNC(=O)C1C(=O)N(CCCCC)C(=O)/C1=N\N` (centres undefined), the GI50 in assay [1] was 49.2 µM (inactive); in assay [2] it was > 100 µM (inactive); in [3], 35.2 µM (inactive); in assay [5], 54.2 µM (inactive); in [6], 43.5 µM (inactive); in [7] it was > 100 µM (inactive). The GI50 in assay [8] was 37.8 µM (inactive); in [10], 30.1 µM (inactive); in assay [11] it was > 100 µM (inactive); in [12] it was 59.4 µM (inactive); in assay [13], 35.3 µM (inactive); in [15] it was > 100 µM (inactive). The GI50 in [16] was 40.8 µM (inactive).

In the case of `Cc1ccc(C(=O)C#Cc2cnc(O)nc2O)cc1`, the GI50 in [1] was 12.4 µM (inactive); in [2], 13.4 µM (inactive); in assay [3], 18.2 µM (inactive); in [4], 17.4 µM (inactive); in [5], 4.55 µM (inactive); in assay [6] it was 10.2 µM (inactive). In addition, the GI50 in assay [7] is 18.9 µM (inactive); in assay [8], 18.6 µM (inactive); in assay [9] it was 2.99 µM (inactive); in [10], 12.9 µM (inactive); in assay [11], 11.5 µM (inactive); in assay [12] it was 4.09 µM (inactive). Also, the GI50 in assay [13] is 12.7 µM (inactive); in assay [14] it was 5.94 µM (inactive); in [15] it was 18 µM (inactive); in assay [16], 3.41 µM (inactive).

Regarding `CC(C)N(C(=O)C12C3C4C1(I)C1C2C3(I)C41C(=O)N(C(C)C)C(C)C)C(C)C` (centres undefined), the GI50 is > 100 µM (inactive) in assay [1]; > 45.7 µM (inactive) in assay [2]; > 100 µM (inactive) in [3]; > 100 µM (inactive) in [4]; > 100 µM (inactive) in assay [5]; > 100 µM (inactive) in assay [6]. Further, the GI50 is > 100 µM (inactive) in assay [7]; > 100 µM (inactive) in assay [8]; > 100 µM (inactive) in [9]; > 71 µM (inactive) in [10]; > 44.9 µM (inactive) in [11]; > 43.9 µM (inactive) in assay [12]. Also, the GI50 in assay [13], in assay [14], in assay [15] and in assay [16] was > 100 µM (inactive) each time.

As to `Cc1c2ccnc(C(N)=O)c2c(C)c2c1[nH]c1ccccc12`, the GI50 is 4.13 µM (inactive) in assay [1]; 5.08 µM (inactive) in assay [2]; 2.39 µM (inactive) in [17]; 8.13 µM (inactive) in assay [3]; 6.65 µM (inactive) in [4]; 4.13 µM (inactive) in assay [5]. Besides, the GI50 is 4.92 µM (inactive) in [6]; 18.8 µM (inactive) in [7]; 4.19 µM (inactive) in assay [9]; 8.51 µM (inactive) in assay [10]; 13.4 µM (inactive) in assay [11]; 6.76 µM (inactive) in assay [12]. The GI50 in [13] is 14.1 µM (inactive); in assay [14], 2.4 µM (inactive); in assay [15], 5.55 µM (inactive); in assay [16], 2.72 µM (inactive).

As for `CC1COS(=O)N1c1ccccc1` (centres undefined), the GI50 in assay [1], in assay [2], in assay [4], in assay [6], in [7] and in [8] was > 100 µM (inactive) throughout. The GI50 in assay [9], in assay [10], in assay [11], in [13], in assay [15] and in assay [16] was > 100 µM (inactive) throughout.

For the compound `N#Cc1nc(Nc2ccc(Cl)cc2)sc1N`, the GI50 in assay [1] is 16.7 µM (inactive); in assay [2], 8.43 µM (inactive); in assay [3] it was 22.1 µM (inactive); in [4], 19.8 µM (inactive); in [5] it was 4.54 µM (inactive); in assay [6], 10.1 µM (inactive). Moreover, the GI50 in [7] was 12.1 µM (inactive); in assay [8], 20.9 µM (inactive); in [10] it was 10.2 µM (inactive); in assay [11] it was 4.92 µM (inactive); in [12] it was 2.78 µM (inactive); in [13] it was 6.87 µM (inactive). The GI50 in assay [14] is 6.44 µM (inactive); in assay [15], 23 µM (inactive); in assay [16], 1.52 µM (inactive).

As to `Nc1nc(=O)c(/N=N/c2ccccc2)c(N)[nH]1`, the GI50 is 43.5 µM (inactive) in assay [1]; 55 µM (inactive) in assay [2]; > 100 µM (inactive) in [3]; 76 µM (inactive) in assay [4]; 52.7 µM (inactive) in assay [5]; 18.6 µM (inactive) in [6]. The GI50 in [7] is 41.3 µM (inactive); in assay [8] it was 22.5 µM (inactive); in assay [10], 14.4 µM (inactive); in assay [11], 28.1 µM (inactive); in assay [12], 26.4 µM (inactive); in [13], 38.4 µM (inactive). Moreover, the GI50 in assay [14] is 16.1 µM (inactive); in assay [15] it was 59.8 µM (inactive); in [16] it was > 100 µM (inactive).

Turning to `O=C(O/N=C1/CCCC/C1=C\c1ccccc1)c1ccccc1`, the GI50 in [1] was 42.5 µM (inactive); in assay [2], > 100 µM (inactive); in assay [3], > 100 µM (inactive); in assay [4] it was > 100 µM (inactive); in assay [5], > 100 µM (inactive); in [6], > 100 µM (inactive). Besides, the GI50 in [7] was > 100 µM (inactive); in assay [8] it was 63.5 µM (inactive); in assay [9] it was > 100 µM (inactive); in [10], 92.7 µM (inactive); in [11], 20.2 µM (inactive); in assay [12], > 100 µM (inactive). Also, the GI50 in assay [13] was > 100 µM (inactive); in assay [14], 34 µM (inactive); in assay [15] it was > 100 µM (inactive); in assay [16], 24.5 µM (inactive).

For the compound `Clc1c(Cl)c2c(Cl)c(Cl)c1C[PH](c1ccccc1)(c1ccccc1)CC[PH](c1ccccc1)(c1ccccc1)Cc1c(Cl)c(Cl)c(c(Cl)c1Cl)C[PH](c1ccccc1)(c1ccccc1)CC[PH](c1ccccc1)(c1ccccc1)C2`, the GI50 in assay [1] is 3.29 µM (inactive); in [2], 4.67 µM (inactive); in [3], 2.67 µM (inactive); in assay [4], 5.07 µM (inactive); in assay [5], 3.28 µM (inactive); in assay [6] it was 1.85 µM (inactive). The GI50 is 3.15 µM (inactive) in assay [7]; 2.26 µM (inactive) in assay [8]; 2.49 µM (inactive) in assay [9]; 3.22 µM (inactive) in assay [10]; 1.36 µM (inactive) in assay [11]; 3.68 µM (inactive) in [12]. Further, the GI50 in assay [13] was 3.63 µM (inactive); in assay [14], 1.79 µM (inactive); in assay [15], 3.18 µM (inactive); in assay [16] it was 3.27 µM (inactive).

For `Cc1cc(N(CCCCl)CCCCl)ccc1/C=N/c1cccc(Cl)c1`, the GI50 in [1] is 11.9 µM (inactive); in [2], 14.2 µM (inactive); in assay [17], 16.2 µM (inactive); in assay [3], 15.3 µM (inactive); in assay [4] it was < 0.01 µM (active); in [5], 16.7 µM (inactive). In addition, the GI50 in assay [6] is 0.74 µM (active); in assay [7], 1.2 µM (inactive); in [18], 14.3 µM (inactive); in [9], 11.5 µM (inactive); in assay [10], 15.7 µM (inactive); in assay [11], 13 µM (inactive). For the same compound, the GI50 is < 0.01 µM (active) in assay [13]; 17.7 µM (inactive) in assay [19]; 25 µM (inactive) in assay [14]; 10.6 µM (inactive) in [15]; 4.41 µM (inactive) in assay [16].

As for `CN1CC(C(=O)C2C(=O)c3ccccc3C2=O)C(=O)C(=O)C(C(=O)C2C(=O)c3ccccc3C2=O)C1` (centres undefined), the GI50 in assay [1] was 77.6 µM (inactive); in assay [2], > 100 µM (inactive); in assay [3], > 100 µM (inactive); in [5], > 100 µM (inactive); in assay [6], > 100 µM (inactive); in [7], > 100 µM (inactive). Further, the GI50 in assay [8] is 85.1 µM (inactive); in assay [10], > 100 µM (inactive); in assay [11] it was > 100 µM (inactive); in assay [12], > 100 µM (inactive); in assay [13], > 100 µM (inactive); in assay [14], > 100 µM (inactive). The GI50 in assay [15] and in [16] was > 100 µM (inactive) throughout.

As to `c1ccc(-c2cn3nc(N4CCOCC4)sc3n2)cc1`, the GI50 is 31.8 µM (inactive) in [1]; 37.4 µM (inactive) in assay [2]; > 100 µM (inactive) in assay [17]; > 100 µM (inactive) in assay [3]; > 100 µM (inactive) in [4]; 8.49 µM (inactive) in assay [5]. In addition, the GI50 in [6] is > 100 µM (inactive); in [7] it was > 100 µM (inactive); in assay [18], 60 µM (inactive); in assay [9], 83.6 µM (inactive); in assay [10] it was 48.6 µM (inactive); in assay [11], > 100 µM (inactive). Besides, the GI50 in assay [13], in assay [19], in assay [14], in [15] and in [16] was > 100 µM (inactive) throughout.

The values are drawn from ChEMBL document CHEMBL1201862, “PubChem BioAssay data set” (2004).
